Here are results for one compound from patent publication EP0385936A1, “Peptide lactone and derivatives thereof, process for their production and means for carrying out the process” (CIBA-GEIGY AG, priority 1989, dated 1990).

Data set [1] relates to Arthrobacter crystallopoietes ATCC 15481. Put plainly: Agar dilution series test, minimal inhibitory concentration. The class given is cell-based. As to conditions: Crystallibacter crystallopoietes, ATCC15481, in vitro, read-out: Minimale Hemmkonzentration. How it is done:
(§1) Hormaomycin zeigt in vitro in einem Agar-Verdünnungsreihentest eine antimikrobielle Wirkung gegen einige Bakterien, z.B. Arthrobacter crystallopoites, Arthrobacter oxydans, Corynebacterium species, Brevibacterium linens und Salmonella typhimurium. Die minimale Hemmkonzentration liegt im Bereich zwischen 0,0001 und 50 µg/ml. Die nachfolgende Tabelle offenbart einige spezifische Beispiele: […]

In data set [2] the test system is Arthrobacter oxydans ATCC 14358. The description is as above. The settings on record: Pseudarthrobacter oxydans, ATCC14358, in vitro, read-out: Minimale Hemmkonzentration. The class given is cell-based. How it is done: as §1
For data set [3], the system named is Brevibacterium linens ATCC 9172. The description is as above. It is filed as cell-based. As to conditions: ATCC9172, in vitro, read-out: Minimale Hemmkonzentration. How it is done:
as §1

The test system of data set [4] is Corynebacterium sp. ATCC 23830. The data set is described as above. The class given is cell-based. As to conditions: ATCC23830, in vitro, read-out: Minimale Hemmkonzentration. Here is the method:
as §1

Data set [5] relates to Salmonella typhimurium ATCC 13311. Described as above. The class given is cell-based. As to conditions: Salmonella enterica, in vitro, read-out: Minimale Hemmkonzentration. Here is the method: as §1
The subject of data set [6] is Streptomyces griseoflavus (Tü 1306). Put plainly: Increase of tirandamycin production in fermentation broth. It is filed as cell-based. Here is the method:
(§2) Hormaomycin bewirkt bereits in einer Konzentration ab etwa 0,05 µg/ml bei einigen Streptomyceten-Stämmen eine Erhöhung der Bildung von Antibiotika.

In data set [7] the test system is einigen Streptomyceten-Stämmen. Put plainly: Increase of antibiotic formation in Streptomyces strains. As to conditions: lowest effective concentration; read-out: Konzentration, ab der eine Erhöhung der Bildung von Antibiotika bewirkt wird. The class given is cell-based. How it is done: as §2
In data set [8] the test system is Streptomyces griseoflavus (DSM 5195). Kind of data set: Induction of aerial mycelium on test plates (paper disc on agar). The settings on record: 1 µg in a paper disc on agar on which no aerial mycelium develops. The class given is cell-based. The source says: Hormaomycin induziert die Luftmycelbildung von Streptomyces griseoflavus (DSM 5195) und von weiteren Streptomyces-Stämmen. […] Zusätzlich induziert die Substanz die Antibiotikaproduktion in diesen Stämmen.

In data set [9] the test system is durch anti-CD 3 monoklonale Antikörper induzierten T-Zell-Proliferation in menschlichem Blut. Kind of data set: Inhibition of T-cell proliferation induced by anti-CD 3 monoclonal antibodies in human blood (3H-thymidine). It is filed as cell-based, menschlich. The settings on record: 50 ng/ml anti-CD 3 antibody, 48 h + 16 h 3H-thymidine, read-out: IC₅₀. Here is the method:
Hemmung der durch anti-CD 3 monoklonale Antikörper induzierten T-Zell-Proliferation in menschlichem Blut
Venöses menschliches Blut wird mit 10 Einheiten Heparin pro ml versetzt und im Verhältnis 1:6 (v:v) mit RPMI 1640 Medium (Gibco) verdünnt. Nach Zugabe von 50 ng/ml anti-CD 3 monoklonalen Antikörpern (TR 66, IgG1K) werden pro Loch 150 µl verdünntes Blut in eine Lochtiterplatte mit 96 Löchern eingefüllt. Dann werden pro Loch 50 µl einer Verbindung der Formeln I oder III in dem obengenannten RPMI Medium hinzugefügt. Als Referenzverbindungen verwendet man Cyclosporin A (CSA, Sandoz, Basel, Schweiz) oder Prednisolon.
Nach 48 Stunden bei 37°C und einem Gehalt von 7 Volumenprozent CO₂ in der Luft fügt man pro Loch 1.0 µCi ³H-Thymidin in 10 µl RPMI Medium (Amersham: spezifische Aktivität 5 Ci/mMol).
Nach weiteren 16 Stunden werden die Zellen mit einer 96-Loch-Erntemaschine (LKB, Bromma, Schweden) auf Glasfiberfiltern (LKB) geerntet. Nach dem Trocknen der Filter wird ihre Radioaktivität gemessen (Optiscint[LKB], Betaplatten-Scintillations-Zähler [LKB]). Die Ergebnisse werden als Durchschnittswerte der für jedes Loch bei drei verschiedenen Konzentrationen in An- und Abwesenheit der Prüfsubstanzen ermittelten cpm (counts pro Minute) ausgedrückt und die Wirkung der Substanzen wird als prozentuale Hemmung angegeben, welche folgendermassen definiert ist: [formula] […]

In data set [10] the test system is durch Interleukin-2 induzierten T-Zell-Proliferation in menschlichem Blut. Put plainly: Inhibition of T-cell proliferation induced by interleukin-2 in human blood (3H-thymidine). It is filed as cell-based, menschlich. The settings on record: 100 Einheiten/ml recombinant interleukin-2, read-out: IC₅₀.
Data set [11] is described as follows: Solubility in solvents (qualitative). The class given is physicochemical. From the text:
Hormaomycin ist neutral, löst sich gut in Methanol, Chloroform, Aceton und Essigsäureethylester und ist in Wasser oder Hexan unlöslich. Auf Dünnschichtchromatographie-Platten löscht es UV-Licht (254 nm), färbt sich beim Stehen an der Luft langsam gelb und lässt sich nach Barrollier (blaugrün) und mit Ehrlich's Reagenz (blass violett), nicht jedoch mit Ninhydrin anfärben.

pIC50: −log10 of the molar value. Converted amounts (≈) assume the structure as drawn.

With `C/C=C\C1CC2C(=O)OC(C)C(NC(=O)C(CC3CC3[N+](=O)[O-])NC(=O)c3ccc(Cl)n3O)C(=O)NC(C(C)c3ccccc3)C(=O)NC(CC3CC3[N+](=O)[O-])C(=O)NC(C(C)c3ccccc3)C(=O)NC(C(C)CC)C(=O)N2C1` (stereo not shown) [Hormaomycin], the MIC in data set [1] worked out at 0.0001 µg/mL (≈ 0.0885 nM); in [2], 0.0005 µg/mL (≈ 0.443 nM); in data set [3], 10 µg/mL (≈ 8850 nM); in data set [4] it was 0.1 µg/mL (≈ 88.5 nM); in data set [5], 50 µg/mL (≈ 44300 nM). Besides, the figures for the “Produktion des Antibiotikums Tirandamycin” value in [6] (Hormaomycin 0,05 µg/ml added to fermentation broth) and in data set [6] (Hormaomycin 1 µg/ml added to fermentation broth) were “Verdoppelung” and “ungefähre Vervierfachung”, respectively. In data set [7], the minimal effective concentration is roughly 0.05 µg/mL. For the same compound, in [8], the Luftmycelbildung entry is “reichliche Luftmycelbildung”. The pIC50 was 4.82 to 5.82 in data set [9] and 4.40 to 5.40 in data set [10]. Further, the Löslichkeit result in data set [11] (in Methanol, Chloroform, Aceton und Essigsäureethylester) is on record as “löst sich gut”; in [11] (in Wasser oder Hexan) it was “unlöslich”.
